The values below are quoted from earlier work in patent US20070248684A1, “Pharmaceutical formulations of oxcarbazepine and methods for its preparation” (priority 2006, published 2007).

For this data set the following is noted: in words.

`NC(=O)N1c2ccccc2CC(=O)c2ccccc21` [Oxcarbazepine, 10-oxo-10,11-dihydro-5H-dibenz[b,f]azepine-5-carboxamide]: the solubility in water result is recorded as “practically insoluble”.
